Experiments:
[1] = system: Sprague-Dawley rats, STZ diabetic nephropathy; experiment: Rat model of diabetic nephropathy (STZ, high fat diet); assay type: in vivo; conditions: Losartan 25 mg/kg po daily
Method: Losartan has been used as a positive control. Seventy-four male Sprague-Dawley rats (200-250 g; including 4 spare animals) from Charles River (Margate, Kent) were used. Rats were housed in pairs in polypropylene cages with free access to a high fat diet (D12492 60% of kcal derived from fat) and tap water at all times. The diet has been purchased from Research Diets, New Jersey, USA. All animals have been maintained at 21±4° C. and 55±20% humidity on a normal light (lights on: 07:00-19:00). […] About 40 animals have been assigned to Cohort A and the remaining 30 to Cohort B, balanced as far as possible for body weight, plasma glucose and food and water intake. […] In all groups, food and water intake have been determined twice weekly (on the day of iv dosing and on water refill days. Blood glucose has been determined monthly. Samples were collected as detailed previously by glucometer (One Touch Ultra2). Blood samples have been taken in the freely fed state (beginning at approx. 09:00). Animals have been dosed immediately afterwards by the respective route to a timed schedule. Subsequent to dosing, each animal has been placed in a metabolism cage with free access to food and water for a 24 h period. To reduce evaporation, the glass urine collectors have been placed in a polystyrene container (Sca-online, UK) which was filled with ice. […] Food consumed and water drunk has also been calculated. […]

[2] = Phase II trial, safety and tolerability (adverse events)
Method: The criteria for evaluation of safety were:
An AE is therefore any unfavorable and unintended sign, symptom or disease temporally associated with the use of a medicinal product, whether or not considered related to the medicinal product.
Patients were analyzed as treated, i.e. according to the treatment which they received. The safety set was the primary analysis set for the safety analysis.
The present study was a double-blind study. All patients who were randomized and for whom the sub-conjunctival injection was started are included in the safety analysis by dose group. […] If the study treatment eye drops were stopped prematurely (i.e. before day 21), the patients concerned continued follow-up until day 28, in accordance with the study protocol.
Investigators assessed (in a blinded manner) the relationship of each reported AE to any of the study treatments. An event was considered to be related to study treatment if the Investigator ticked either ‘possible’ or ‘probable’ as the reply to this question.

[3] = system: post-operative intraocular inflammation; conditions: Dexamethasone (N = 50)
Method: The objectives of the SDD-1002-035 study were to evaluate the efficacy and safety of a single sub-conjunctival injection of XG-102 90 or 900 μg administered within maximally 3 hours after the end of the surgical procedure compared to dexamethasone eye drops administered 4 times/day for 21 days in post-operative intraocular inflammation.
In accordance with this trial's primary objective, the primary outcome was evaluated by the mean anterior chamber cells grade at day 28 post-administration of the sub-conjunctival injection of study treatment comparing XG-102 900 μg with dexamethasone eye drops.
The present trial was a randomized (1:1:1), controlled, double-blind, multicenter non-inferiority clinical trial with three parallel groups of equal size. Randomization, which was blocked by center, was performed using a web-based, secure, randomization system. […]
The primary objective was evaluated by the mean anterior chamber cells grade at day 28 post-administration of the sub-conjunctival administration of study treatment. […]

SMILES: CCCCc1nc(Cl)c(CO)n1Cc1ccc(-c2ccccc2-c2nn[nH]n2)cc1 [Losartan]
- body weight [1]: significantly lower

SMILES: C[C@@H]1C[C@H]2[C@@H]3CCC4=CC(=O)C=C[C@]4(C)[C@@]3(F)[C@@H](O)C[C@]2(C)[C@@]1(O)C(=O)CO [dexamethasone, reference compound]
- Adverse events which led to an interruption of study treatment ([2]; Dexamethasone dose group): 3 (5.5%) number of events (%)
- patients with Intraocular pressure increased ([2]; dexamethasone): 14%
- percentage of patients who experienced an AE within 24 hours ([2]; dexamethasone group): 30%
- Premature withdrawal of study tx eye drops, # patients (%) [3]: 3 (6.0%)

Reference: patent US10624948B2, “Use of cell-permeable peptide inhibitors of the JNK signal transduction pathway for the treatment of various diseases” (Xigen Inflammation Ltd., priority 2013, dated 2020)
